Results on one compound are retold here after publication PMC10254852, “Design, Synthesis and Anticancer Evaluation of Nitroimidazole Radiosensitisers” (Molecules, 2023).

Where two headings read alike, the source gives them in different places.

The subject of data set [1] is HCT116/54C tumour xenografts. Kind of data set: Tumour growth inhibition in combination with radiation. It is filed as in vivo, NIH-III mice. The note with it: HCT116/54C tumours. The procedure:
(§1) Specific pathogen-free six- to eight-week-old female NIH-III mice, bred in the Vernon Jansen Unit, University of Auckland, were used for animal experiments. Animals had ad libitum access to food and water and were maintained in microisolator cages on a 12 h light/dark cycle. All treatments were administered by i.v. injection at a dose of 2.2 mmol/kg and injection volume of 10 mL/kg. Compounds 2, 34 and 38 were administered as solutions in saline containing 1% DMSO or for 9–12 as solutions in saline containing 2 molar equivalents of NaHCO3. Control animals received an i.v. injection of saline at 10 mL/kg. All animal experiments were conducted under the auspices of the University of Auckland Animal Ethics Committee (approval 1781).
(§2) Compounds were evaluated for their ability to inhibit tumour growth in combination with a single dose of radiation (10 Gy) in HCT116/54C or UT-SCC-74B tumour xenografts on the backs of NIH-III mice. In addition, a fractionated radiation schedule (5 Gy on Days 1, 7 and 14) was explored in HCT116/54C tumour xenografts. Mice were randomly assigned to 4 treatment groups and treated with: (A) vehicle control, (B) 10 Gy RAD only, (C) sensitiser only, or (D) sensitiser given 10 min before 10 Gy RAD. Drugs were administered by i.v. injection at 2.2 mmol/kg either as a single dose or three doses on Days 1, 7 and 14 in the fractionated study. Treatment commenced when the average tumour size reached approximately 250 mm^3, and tumour size was measured until study endpoint. Mice were placed in a custom-built lead-shielded jig that allowed irradiation of the whole tumour but shielded the mouse from radiation. Survival analysis represented the time taken for tumours to increase in relative tumour volume by 4× from the start of treatment (RTV^4). The significance of differences in activity between the groups was assessed by log-rank with Holm–Sidak multiple comparison analysis.

Data set [2] has as its system UT-SCC-74B tumour xenografts. The description is as above. It is filed as in vivo, NIH-III mice. The following applies: UT-SCC-74B tumours, single dose 2.2 mmol/kg i.v. The procedure:
as §1, §2

In data set [3] the test system is HCT116/54C cells. Kind of data set: In vitro radiosensitisation under anoxia, clonogenic survival. The format is cell-based, human. The note with it: compound 1 mM, radiation dose for 1% survival/radiation dose for 1% survival with compound, mean ± SEM.
For data set [4], the system named is HCT116/54C cells. Kind of data set: In vitro cytotoxicity, 4 h exposure oxic/anoxic, 5-day regrowth, sulforhodamine B. It is filed as cell-based, human. The note with it: for IC50: Homo sapiens, 4 h exposure, mean ± SEM, n = 3–4.
The test system of data set [5] is UT-SCC-74B cells. The data set is described as above. The format is cell-based, human. The following applies: for IC50: Homo sapiens, 4 h exposure, mean ± SEM.
Data set [6] can be described thus: Plasma pharmacokinetics after single i.v. dose. The format is in vivo. The following applies: female, mouse, iv, NIH-III mice, 2.2 mmol/kg i.v. The procedure:
as §1
Female NIH-III mice were injected with a single i.v. dose of 34 at its MAD of 2.2 mmol/kg in saline. Blood was collected by cardiac puncture under terminal CO2 anaesthesia at 5, 10, 30, 60 and 120 min after dosing. Blood was immediately centrifuged (3000× g, 3 min), and plasma was stored at −80 °C for HPLC. Tumour samples were prepared and analysed by HPLC using standard protocols established in our laboratory.

With `O=[N+]([O-])c1nccn1CS(=O)(=O)NCCN1CCOCC1` [Compound 34], the “survival (time to RTV^4) vs radiation alone” value in data set [1] (fractionated radiation, p < 0.05) is listed as “significantly increased survival compared to radiation alone”. Moreover, the “tumour growth delay with fractionated radiation” value in data set [1] (qw × 3, 5 Gy, 2.2 mmol/kg i.v.) is “delayed tumour growth relative to radiation alone”. Further, the “tumour growth inhibition with single dose 10 Gy radiation” value in data set [1] (single dose 2.2 mmol/kg i.v.) and in data set [2] was “able to sensitise 10 Gy radiation to a similar level observed with 2” each time. For the same compound, the “SER at 1 mM” value in data set [3] worked out at 1.92 ± 0.01. Besides, the HCR in data set [4] (HCT116/54C, IC50(oxic)/IC50(anoxic)) is 38.8; in data set [5] (IC50(oxic)/IC50(anoxic)) it was 24.5. Besides, the half-maximal inhibitory concentration (IC50) in data set [4] (HCT116/54C, anoxic, read-out: IC50 Anoxic) was found to be 0.17 ± 0.01 mM; in data set [4] (HCT116/54C, oxic, read-out: IC50 Oxic) it was 6.4 ± 1 mM; in data set [5] (anoxic, n = 3–4, read-out: IC50 Anoxic) it was 0.51 ± 0.08 mM; in data set [5] (oxic, n = 3–4, read-out: IC50 Oxic), 12.6 ± 1.8 mM. In addition, the “HCR values in vitro” value in data set [4] (range across the cell line panel) is on record as 23–38. The AUC in data set [6] amounted to 960 µM·h. The highest concentration (Cmax) in data set [6] turned out to be 1530 µM. The compound also had a half-life in data set [6] of 1.52 h.
